# Values joined by “and” are separate entries in the source; they are usually repeats but may differ in a detail not shown here. Equal values may be shown once. “Also recorded” adds a separate entry of the source. Read-outs that look alike come from different tables or passages of the source.
# How the values were obtained:
# [1] = Plasma concentrations after single intravenous dose in mice; assay type: in vivo; conditions: male, CD-1, mouse, 0.5 mg/kg intravenous, read-out: Terminal elimination half life (converted)
# Description: Three male 7-9 week old male CD-1 mice from Lingchang were treated intravenously with 0.5 mg/kg of TQS-168. TQS-168 was prepared in solution of 31.6% DMAC+36.8% Ethanol+31.6% Propylene glycol. Blood was collected at 0.5, 3, 10, 30, 60, 120, 240, 480 and 720 minutes after a single dose of TQS-168 and then processed. Blood samples were collected via saphenous vein puncture into a K2EDTA tube, centrifuged at 4° C. at 4600 rpm for 5 minutes and plasma collected and stored at less than −20° C. prior to being analyzed by LC-MS for TQS-168 concentrations. Data are presented as concentration and mean concentration of TQS-168 per volume of plasma (ng/mL), as shown in FIG. 10 (individual mice) and FIG. 11 (average), respectively.
# [2] = Tissue concentrations (plasma, brain, liver) after single oral dose 25 mg/kg in mice; assay type: in vivo
# Description: In a first experiment, a total of 3-4 male C57BL6/J mice were administered a single dose of TQS-168 by oral gavage at 25 mg/kg. TQS-168 was prepared for oral gavage as a suspension with 0.5% methylcellulose in PBS.
# Tissues were collected at various time points after dosing and processed for LC-MS analyses of TQS-168 concentrations. The tissues analyzed include plasma, brain, and liver. Animals were perfused thoroughly with 20 mL ice cold PBS before brain and liver collection to remove contaminating blood. Data are shown in Table 1 (TQS-168 concentrations in ng/mL).
# IL-6 = test: LPS-stimulated IL-6 secretion from human PBMCs (ELISA); assay type: cell-based; conditions: LPS 1 ng/mL, 24 h
# Description: The principal metabolites from liver metabolism of TQS-168 following oral administration have been described. See Sun et al., Rapid Commun. Mass Spectrom. 32:480-488 (2018), incorporated herein by reference. We synthesized the phase 1 metabolites from liver metabolism of TQS-168 illustrated in FIG. 20 and tested them for the ability to inhibit LPS-stimulated secretion of pro-inflammatory cytokines in vitro.
# Briefly, 20,000 human PBMC were aliquoted into each well. LPS was added at 1 ng/mL and the cells incubated for 24 h in the presence of LPS and TQS-168 or one of its metabolites. Readouts were human IL-6 ELISA and human TNFα ELISA. For assay, supernatants were diluted in culture medium. The supernatant dilution for the IL-6 ELISA was 1:8, and the 1:2 for the human TNFα ELISA.
# [3] = 25 mg/kg p.o., 0.0 minutes, individual animal, 25 mg/kg
# [4] = 25 mg/kg p.o., 15.0 minutes, individual animal, 25 mg/kg
# [5] = 25 mg/kg p.o., 60.0 minutes, individual animal, 25 mg/kg
# [6] = 25 mg/kg p.o., 120.0 minutes, individual animal, 25 mg/kg
# [7] = 25 mg/kg p.o., 240.0 minutes, individual animal, 25 mg/kg
# [8] = 25 mg/kg p.o., 480.0 minutes, individual animal, 25 mg/kg
# [9] = 25 mg/kg p.o., 1440.0 minutes, individual animal, 25 mg/kg
# [10] = 25 mg/kg p.o., 2880.0 minutes, individual animal, 25 mg/kg
structure (smiles),measurement,setting,value
"CC(C)(C)c1ccc(-c2nc3ccccc3[nH]2)cc1 [TQS-168, 2-(4-tert-butylphenyl)-1H-benzimidazole]",half-life,[1],8.4 min
same,concentration in brain,[2]; [3],4.2 ng/mL and 10.7 ng/mL and 22.8 ng/mL
same,concentration in liver,[2]; [3],2.4 ng/mL and 0.4 ng/mL and 0.7 ng/mL
same,concentration in plasma,[2]; [3],0.5 ng/mL and 0.1 ng/mL and 0.0 ng/mL
same,concentration in brain,[2]; [4],21.6 ng/mL and 42.0 ng/mL and 35.2 ng/mL
same,concentration in liver,[2]; [4],268.0 ng/mL and 496.0 ng/mL and 575.0 ng/mL and 431.5 ng/mL
same,concentration in plasma,[2]; [4],12.6 ng/mL and 18.6 ng/mL and 14.6 ng/mL
same,concentration in brain,[2]; [5],253.0 ng/mL and 755.0 ng/mL and 530.0 ng/mL and 630.0 ng/mL
same,concentration in liver,[2]; [5],1060.0 ng/mL and 2725.0 ng/mL and 1940.0 ng/mL and 2175.0 ng/mL
same,concentration in plasma,[2]; [5],107.0 ng/mL and 47.0 ng/mL and 57.4 ng/mL and 86.0 ng/mL
same,concentration in brain,[2]; [6],282.0 ng/mL and 150.5 ng/mL and 242.5 ng/mL
same,concentration in liver,[2]; [6],305.5 ng/mL and 2080.0 ng/mL and 1070.0 ng/mL and 1725.0 ng/mL
same,concentration in plasma,[2]; [6],110.0 ng/mL and 43.8 ng/mL and 88.6 ng/mL and 131.0 ng/mL
same,concentration in brain,[2]; [7],399.0 ng/mL and 143.0 ng/mL and 188.0 ng/mL and 10.6 ng/mL
same,concentration in liver,[2]; [7],60.5 ng/mL and 1520.0 ng/mL and 216.5 ng/mL and 680.0 ng/mL
same,concentration in plasma,[2]; [7],46.8 ng/mL and 175.0 ng/mL and 3.4 ng/mL and 14.0 ng/mL
same,concentration in brain,[2]; [8],34.8 ng/mL and 20.9 ng/mL and 5.3 ng/mL and 18.2 ng/mL
same,concentration in liver,[2]; [8],431.5 ng/mL and 50.5 ng/mL and 37.6 ng/mL and 147.5 ng/mL
same,concentration in plasma,[2]; [8],6.0 ng/mL and 2.7 ng/mL and 1.8 ng/mL and 10.9 ng/mL
same,concentration in plasma,"[2]; 25 mg/kg p.o., 1440.0 minutes, individual animal",0.0 ng/mL
same,concentration in brain,[2]; [9],36.3 ng/mL and 8.5 ng/mL and 10.5 ng/mL and 55.5 ng/mL
same,concentration in liver,[2]; [9],4.0 ng/mL and 2.6 ng/mL and 0.8 ng/mL and 8.7 ng/mL
same,concentration in plasma,"[2]; 25 mg/kg p.o., 2880.0 minutes, individual animal",0.0 ng/mL
same,concentration in brain,[2]; [10],0.0 ng/mL and 3.0 ng/mL and 2.5 ng/mL and 0.7 ng/mL
same,concentration in liver,[2]; [10],0.0 ng/mL (3×) and 1.0 ng/mL
same,concentration at 0 min,"[2]; male, C57BL6/J, mouse, brain, po, 25 mg/kg, 25 mg/kg p.o., 0.0 minutes, average, read-out: concentration in brain",12.6 ng/mL
same,concentration at 15 min,"[2]; male, C57BL6/J, mouse, brain, po, 25 mg/kg, 25 mg/kg p.o., 15.0 minutes, average, read-out: concentration in brain",34.7 ng/mL
same,concentration at 15 minutes,"[2]; male, C57BL6/J, mouse, brain, po, 25 mg/kg, 25 mg/kg p.o., 15.0 minutes, individual animal",40.2 ng/mL
same,concentration at 60 min,"[2]; male, C57BL6/J, mouse, brain, po, 25 mg/kg, 25 mg/kg p.o., 60.0 minutes, average, read-out: concentration in brain",542 ng/mL
same,concentration at 120 min,"[2]; male, C57BL6/J, mouse, brain, po, 25 mg/kg, 25 mg/kg p.o., 120.0 minutes, average, read-out: concentration in brain",236 ng/mL
same,concentration at 120 minutes,"[2]; male, C57BL6/J, mouse, brain, po, 25 mg/kg, 25 mg/kg p.o., 120.0 minutes, individual animal",270 ng/mL
same,concentration at 240 min,"[2]; male, C57BL6/J, mouse, brain, po, 25 mg/kg, 25 mg/kg p.o., 240.0 minutes, average, read-out: concentration in brain",185 ng/mL
same,concentration at 480 min,"[2]; male, C57BL6/J, mouse, brain, po, 25 mg/kg, 25 mg/kg p.o., 480.0 minutes, average, read-out: concentration in brain",19.8 ng/mL
same,concentration at 1440 min,"[2]; male, C57BL6/J, mouse, brain, po, 25 mg/kg, 25 mg/kg p.o., 1440.0 minutes, average, read-out: concentration in brain",27.7 ng/mL
same,concentration at 2880 min,"[2]; male, C57BL6/J, mouse, brain, po, 25 mg/kg, 25 mg/kg p.o., 2880.0 minutes, average, read-out: concentration in brain",1.5 ng/mL
same,concentration at 0 min,"[2]; male, C57BL6/J, mouse, liver, po, 25 mg/kg, 25 mg/kg p.o., 0.0 minutes, average, read-out: concentration in liver",1.2 ng/mL
same,concentration at 15 min,"[2]; male, C57BL6/J, mouse, liver, po, 25 mg/kg, 25 mg/kg p.o., 15.0 minutes, average, read-out: concentration in liver",443 ng/mL
same,concentration at 60 min,"[2]; male, C57BL6/J, mouse, liver, po, 25 mg/kg, 25 mg/kg p.o., 60.0 minutes, average, read-out: concentration in liver",1980 ng/mL
same,concentration at 120 min,"[2]; male, C57BL6/J, mouse, liver, po, 25 mg/kg, 25 mg/kg p.o., 120.0 minutes, average, read-out: concentration in liver",1300 ng/mL
same,concentration at 240 min,"[2]; male, C57BL6/J, mouse, liver, po, 25 mg/kg, 25 mg/kg p.o., 240.0 minutes, average, read-out: concentration in liver",619 ng/mL
same,concentration at 480 min,"[2]; male, C57BL6/J, mouse, liver, po, 25 mg/kg, 25 mg/kg p.o., 480.0 minutes, average, read-out: concentration in liver",167 ng/mL
same,concentration at 1440 min,"[2]; male, C57BL6/J, mouse, liver, po, 25 mg/kg, 25 mg/kg p.o., 1440.0 minutes, average, read-out: concentration in liver",4 ng/mL
same,concentration at 2880 min,"[2]; male, C57BL6/J, mouse, liver, po, 25 mg/kg, 25 mg/kg p.o., 2880.0 minutes, average, read-out: concentration in liver",0.3 ng/mL
same,Cmax,"[2]; male, C57BL6/J, mouse, plasma, 25 mg/kg single oral dose",93.4 ng/mL and 370 nM
same,concentration at 0 min,"[2]; male, C57BL6/J, mouse, plasma, po, 25 mg/kg, 25 mg/kg p.o., 0.0 minutes, average, read-out: concentration in plasma",0.2 ng/mL
same,concentration at 15 min,"[2]; male, C57BL6/J, mouse, plasma, po, 25 mg/kg, 25 mg/kg p.o., 15.0 minutes, average, read-out: concentration in plasma",16.2 ng/mL
same,concentration at 15 min,"[2]; male, C57BL6/J, mouse, plasma, po, 25 mg/kg, 25 mg/kg p.o., 15.0 minutes, individual animal, read-out: concentration in plasma",18.8 ng/mL
same,concentration at 60 min,"[2]; male, C57BL6/J, mouse, plasma, po, 25 mg/kg, 25 mg/kg p.o., 60.0 minutes, average, read-out: concentration in plasma",74.4 ng/mL
same,concentration at 120 min,"[2]; male, C57BL6/J, mouse, plasma, po, 25 mg/kg, 25 mg/kg p.o., 120.0 minutes, average, read-out: concentration in plasma",93.4 ng/mL
same,concentration at 240 min,"[2]; male, C57BL6/J, mouse, plasma, po, 25 mg/kg, 25 mg/kg p.o., 240.0 minutes, average, read-out: concentration in plasma",59.8 ng/mL
same,concentration at 480 min,"[2]; male, C57BL6/J, mouse, plasma, po, 25 mg/kg, 25 mg/kg p.o., 480.0 minutes, average, read-out: concentration in plasma",5.3 ng/mL
same,concentration at 1440 min,"[2]; male, C57BL6/J, mouse, plasma, po, 25 mg/kg, 25 mg/kg p.o., 1440.0 minutes, average, read-out: concentration in plasma",0 ng/mL
same,concentration at 1440 min,"[2]; male, C57BL6/J, mouse, plasma, po, 25 mg/kg, 25 mg/kg p.o., 1440.0 minutes, individual animal, read-out: concentration in plasma",0 ng/mL
same,concentration at 2880 min,"[2]; male, C57BL6/J, mouse, plasma, po, 25 mg/kg, 25 mg/kg p.o., 2880.0 minutes, average, read-out: concentration in plasma",0 ng/mL
same,concentration at 2880 min,"[2]; male, C57BL6/J, mouse, plasma, po, 25 mg/kg, 25 mg/kg p.o., 2880.0 minutes, individual animal, read-out: concentration in plasma",0 ng/mL
CC(C)(C)c1ccc(-c2nc3cc(O)ccc3[nH]2)cc1 [TQS-621],inhibition of LPS-stimulated IL-6 secretion,IL-6,potently inhibits; also recorded: potent inhibitor
